Measurements taken from ChEMBL document CHEMBL3352334, “Design, synthesis and pharmacological evaluation of 2-(thiazol-2-amino)-4-arylaminopyrimidines as potent anaplastic lymphoma kinase (ALK) inhibitors” (Eur J Med Chem, 2014).
Each block holds one molecule with its values, some of them ahead of it.

Experiments:
[1] = target: T1, ALK tyrosine kinase receptor (Homo sapiens, UniProt Q9UM73); assay: Inhibition of purified ALK (unknown origin) after 60 mins by ELISA kinase assay
[2] = Antiproliferative activity against human SUP-M2 cells assessed as growth inhibition at 1000 nM after 72 hrs by SRB assay; format: functional; conditions: SUP-M2, 72 h, read-out: GI
[3] = Antiproliferative activity against human SUP-M2 cells assessed as growth inhibition at 200 nM after 72 hrs by SRB assay; format: functional; conditions: SUP-M2, 72 h, read-out: GI
[4] = target: ALK tyrosine kinase receptor (Homo sapiens, UniProt Q9UM73, L1196M); assay: Inhibition of purified ALK L1196M mutant (unknown origin) after 60 mins by ELISA kinase assay
[5] = target: T2, Hepatocyte growth factor receptor (Homo sapiens, UniProt P08581); assay: Inhibition of purified c-MET (unknown origin) at 1 uM after 60 mins by ELISA kinase assay
T2 sequence (P08581 whole entry): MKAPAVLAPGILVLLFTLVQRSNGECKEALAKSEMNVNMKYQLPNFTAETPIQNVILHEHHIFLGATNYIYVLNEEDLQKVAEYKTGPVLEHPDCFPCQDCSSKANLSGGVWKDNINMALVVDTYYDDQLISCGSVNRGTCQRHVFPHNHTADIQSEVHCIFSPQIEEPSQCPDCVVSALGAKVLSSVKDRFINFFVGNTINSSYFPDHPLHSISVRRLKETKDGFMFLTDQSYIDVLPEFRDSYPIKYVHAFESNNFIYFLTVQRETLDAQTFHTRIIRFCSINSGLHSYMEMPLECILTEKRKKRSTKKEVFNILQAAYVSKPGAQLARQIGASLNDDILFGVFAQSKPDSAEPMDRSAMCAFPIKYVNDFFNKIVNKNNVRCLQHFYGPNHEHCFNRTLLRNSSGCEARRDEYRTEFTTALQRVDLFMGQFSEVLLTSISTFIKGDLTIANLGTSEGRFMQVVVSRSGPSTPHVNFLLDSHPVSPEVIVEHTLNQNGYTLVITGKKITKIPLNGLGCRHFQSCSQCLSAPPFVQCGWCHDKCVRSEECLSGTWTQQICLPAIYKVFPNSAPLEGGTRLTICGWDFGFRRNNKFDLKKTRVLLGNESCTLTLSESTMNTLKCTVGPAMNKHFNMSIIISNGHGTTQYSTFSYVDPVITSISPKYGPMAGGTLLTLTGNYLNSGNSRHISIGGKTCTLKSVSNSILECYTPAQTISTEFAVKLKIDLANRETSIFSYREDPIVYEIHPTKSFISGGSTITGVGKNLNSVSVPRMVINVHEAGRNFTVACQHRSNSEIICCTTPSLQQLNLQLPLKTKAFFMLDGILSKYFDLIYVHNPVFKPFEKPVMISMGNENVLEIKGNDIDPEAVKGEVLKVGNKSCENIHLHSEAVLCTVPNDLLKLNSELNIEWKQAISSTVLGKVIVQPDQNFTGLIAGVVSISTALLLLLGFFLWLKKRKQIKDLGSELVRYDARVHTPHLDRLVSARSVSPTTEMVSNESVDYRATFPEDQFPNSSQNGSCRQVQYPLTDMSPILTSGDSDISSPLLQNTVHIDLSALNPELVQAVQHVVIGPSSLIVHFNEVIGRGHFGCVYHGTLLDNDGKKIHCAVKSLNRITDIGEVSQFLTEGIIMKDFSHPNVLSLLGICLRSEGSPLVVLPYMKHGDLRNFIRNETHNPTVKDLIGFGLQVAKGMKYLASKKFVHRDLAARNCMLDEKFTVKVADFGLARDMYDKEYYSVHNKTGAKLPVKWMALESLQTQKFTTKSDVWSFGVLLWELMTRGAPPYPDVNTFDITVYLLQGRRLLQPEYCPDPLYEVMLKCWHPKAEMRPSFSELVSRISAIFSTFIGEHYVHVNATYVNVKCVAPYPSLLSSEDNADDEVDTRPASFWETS

[6] = target: Platelet-derived growth factor receptor alpha (Homo sapiens) (UniProt P16234); assay: Inhibition of purified PDGFRalpha (unknown origin) at 1 uM after 60 mins by ELISA kinase assay
[7] = target: Platelet-derived growth factor receptor beta (Homo sapiens) (UniProt P09619); assay: Inhibition of purified PDGFRbeta (unknown origin) at 1 uM after 60 mins by ELISA kinase assay
[8] = target: Epidermal growth factor receptor (Homo sapiens) (UniProt P00533); assay: Inhibition of purified EGFR (unknown origin) at 1 uM after 60 mins by ELISA kinase assay
[9] = target: Insulin-like growth factor 1 receptor (Homo sapiens) (UniProt P08069); assay: Inhibition of purified IGF1R (unknown origin) at 1 uM after 60 mins by ELISA kinase assay
Chain of Insulin-like growth factor 1 receptor (Homo sapiens) (P08069 31-736 limits assumed): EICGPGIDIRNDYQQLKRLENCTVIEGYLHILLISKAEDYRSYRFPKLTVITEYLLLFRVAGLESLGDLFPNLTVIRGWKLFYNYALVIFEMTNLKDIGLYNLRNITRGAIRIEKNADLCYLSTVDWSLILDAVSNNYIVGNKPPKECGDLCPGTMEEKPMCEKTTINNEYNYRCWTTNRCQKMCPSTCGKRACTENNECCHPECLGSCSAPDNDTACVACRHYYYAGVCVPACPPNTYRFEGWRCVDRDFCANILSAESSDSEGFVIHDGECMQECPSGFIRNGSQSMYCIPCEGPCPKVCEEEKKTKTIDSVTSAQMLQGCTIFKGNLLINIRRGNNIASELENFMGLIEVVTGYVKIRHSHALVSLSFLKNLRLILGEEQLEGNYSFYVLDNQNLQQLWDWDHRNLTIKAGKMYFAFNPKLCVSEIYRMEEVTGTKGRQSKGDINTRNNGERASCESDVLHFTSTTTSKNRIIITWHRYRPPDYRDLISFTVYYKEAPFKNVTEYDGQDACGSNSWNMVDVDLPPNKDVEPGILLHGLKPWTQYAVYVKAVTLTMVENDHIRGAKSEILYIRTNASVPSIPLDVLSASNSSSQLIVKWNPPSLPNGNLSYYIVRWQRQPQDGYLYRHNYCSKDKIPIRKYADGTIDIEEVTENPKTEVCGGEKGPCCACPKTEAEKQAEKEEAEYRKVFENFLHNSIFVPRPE
Chain of Insulin-like growth factor 1 receptor (Homo sapiens) (P08069 741-1367 limits assumed): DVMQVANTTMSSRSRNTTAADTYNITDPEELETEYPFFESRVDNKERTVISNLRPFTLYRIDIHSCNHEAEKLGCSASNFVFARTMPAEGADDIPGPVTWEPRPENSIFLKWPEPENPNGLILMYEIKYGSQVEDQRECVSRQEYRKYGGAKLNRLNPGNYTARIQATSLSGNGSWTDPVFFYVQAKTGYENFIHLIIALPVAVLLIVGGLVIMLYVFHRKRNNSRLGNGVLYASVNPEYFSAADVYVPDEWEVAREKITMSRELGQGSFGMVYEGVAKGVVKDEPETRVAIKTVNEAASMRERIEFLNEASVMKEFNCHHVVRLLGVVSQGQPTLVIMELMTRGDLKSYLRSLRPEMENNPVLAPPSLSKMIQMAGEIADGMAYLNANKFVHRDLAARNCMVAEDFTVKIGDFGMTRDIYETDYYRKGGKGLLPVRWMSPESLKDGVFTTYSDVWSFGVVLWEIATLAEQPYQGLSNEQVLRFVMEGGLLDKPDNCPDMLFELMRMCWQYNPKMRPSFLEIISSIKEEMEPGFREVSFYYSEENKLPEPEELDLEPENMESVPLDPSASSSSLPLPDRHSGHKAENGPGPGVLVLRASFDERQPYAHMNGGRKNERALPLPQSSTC

[10] = target: Fibroblast growth factor receptor 1 (Homo sapiens) (UniProt P11362); assay: Inhibition of purified FGFR1 (unknown origin) at 1 uM after 60 mins by ELISA kinase assay
[11] = target: Proto-oncogene tyrosine-protein kinase Src (Homo sapiens) (UniProt P12931); assay: Inhibition of purified c-Src (unknown origin) at 1 uM after 60 mins by ELISA kinase assay
Chain of Proto-oncogene tyrosine-protein kinase Src (Homo sapiens) (P12931 2-536 limits assumed): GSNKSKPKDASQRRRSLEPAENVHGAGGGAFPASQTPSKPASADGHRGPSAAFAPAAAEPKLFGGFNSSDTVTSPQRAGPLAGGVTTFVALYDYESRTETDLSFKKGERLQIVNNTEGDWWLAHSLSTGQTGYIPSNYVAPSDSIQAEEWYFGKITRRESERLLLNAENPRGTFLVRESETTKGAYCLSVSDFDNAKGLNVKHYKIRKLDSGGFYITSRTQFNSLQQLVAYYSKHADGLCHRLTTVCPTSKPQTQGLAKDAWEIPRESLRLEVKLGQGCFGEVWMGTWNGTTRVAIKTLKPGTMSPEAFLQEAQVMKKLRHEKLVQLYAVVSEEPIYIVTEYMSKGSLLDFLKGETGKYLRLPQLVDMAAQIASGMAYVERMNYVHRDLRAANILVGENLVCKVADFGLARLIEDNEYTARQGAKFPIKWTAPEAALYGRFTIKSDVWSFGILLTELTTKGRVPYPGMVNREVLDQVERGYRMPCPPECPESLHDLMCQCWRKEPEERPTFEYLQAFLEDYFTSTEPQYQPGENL

[12] = target: Proto-oncogene tyrosine-protein kinase receptor Ret (Homo sapiens) (UniProt P07949); assay: Inhibition of purified RET (unknown origin) at 1 uM after 60 mins by ELISA kinase assay
[13] = target: Vascular endothelial growth factor receptor 2 (Homo sapiens) (UniProt P35968); assay: Inhibition of purified KDR (unknown origin) at 1 uM after 60 mins by ELISA kinase assay
[14] = target: Vascular endothelial growth factor receptor 1 (Homo sapiens) (UniProt P17948); assay: Inhibition of purified Flt-1 (unknown origin) at 1 uM after 60 mins by ELISA kinase assay
[15] = target: Ephrin type-A receptor 2 (Homo sapiens) (UniProt P29317); assay: Inhibition of purified EPH-A2 (unknown origin) at 1 uM after 60 mins by ELISA kinase assay
[16] = target: Tyrosine-protein kinase ABL1 (Homo sapiens) (UniProt P00519); assay: Inhibition of purified Abl (unknown origin) at 1 uM after 60 mins by ELISA kinase assay
[17] = target: Receptor tyrosine-protein kinase erbB-2 (Homo sapiens) (UniProt P04626); assay: Inhibition of purified ErbB2 (unknown origin) at 1 uM after 60 mins by ELISA kinase assay
[18] = target: Receptor tyrosine-protein kinase erbB-4 (Homo sapiens) (UniProt Q15303); assay: Inhibition of purified ErbB4 (unknown origin) at 1 uM after 60 mins by ELISA kinase assay
[19] = target: Insulin-like growth factor 1 receptor (Homo sapiens) (UniProt P08069); assay: Inhibition of purified IGF1R (unknown origin) at 0.1 uM after 60 mins by ELISA kinase assay
[20] = target: Fibroblast growth factor receptor 1 (Homo sapiens) (UniProt P11362); assay: Inhibition of purified FGFR1 (unknown origin) at 0.1 uM after 60 mins by ELISA kinase assay
[21] = target: Vascular endothelial growth factor receptor 2 (Homo sapiens) (UniProt P35968); assay: Inhibition of purified KDR (unknown origin) at 0.1 uM after 60 mins by ELISA kinase assay
[22] = target: T1, ALK tyrosine kinase receptor; assay: Inhibition of ALK-mediated AKT phosphorylation in human H3122 cells; format: cell-based
Target sequence in this assay (Q9UM73 19-1620 limits assumed): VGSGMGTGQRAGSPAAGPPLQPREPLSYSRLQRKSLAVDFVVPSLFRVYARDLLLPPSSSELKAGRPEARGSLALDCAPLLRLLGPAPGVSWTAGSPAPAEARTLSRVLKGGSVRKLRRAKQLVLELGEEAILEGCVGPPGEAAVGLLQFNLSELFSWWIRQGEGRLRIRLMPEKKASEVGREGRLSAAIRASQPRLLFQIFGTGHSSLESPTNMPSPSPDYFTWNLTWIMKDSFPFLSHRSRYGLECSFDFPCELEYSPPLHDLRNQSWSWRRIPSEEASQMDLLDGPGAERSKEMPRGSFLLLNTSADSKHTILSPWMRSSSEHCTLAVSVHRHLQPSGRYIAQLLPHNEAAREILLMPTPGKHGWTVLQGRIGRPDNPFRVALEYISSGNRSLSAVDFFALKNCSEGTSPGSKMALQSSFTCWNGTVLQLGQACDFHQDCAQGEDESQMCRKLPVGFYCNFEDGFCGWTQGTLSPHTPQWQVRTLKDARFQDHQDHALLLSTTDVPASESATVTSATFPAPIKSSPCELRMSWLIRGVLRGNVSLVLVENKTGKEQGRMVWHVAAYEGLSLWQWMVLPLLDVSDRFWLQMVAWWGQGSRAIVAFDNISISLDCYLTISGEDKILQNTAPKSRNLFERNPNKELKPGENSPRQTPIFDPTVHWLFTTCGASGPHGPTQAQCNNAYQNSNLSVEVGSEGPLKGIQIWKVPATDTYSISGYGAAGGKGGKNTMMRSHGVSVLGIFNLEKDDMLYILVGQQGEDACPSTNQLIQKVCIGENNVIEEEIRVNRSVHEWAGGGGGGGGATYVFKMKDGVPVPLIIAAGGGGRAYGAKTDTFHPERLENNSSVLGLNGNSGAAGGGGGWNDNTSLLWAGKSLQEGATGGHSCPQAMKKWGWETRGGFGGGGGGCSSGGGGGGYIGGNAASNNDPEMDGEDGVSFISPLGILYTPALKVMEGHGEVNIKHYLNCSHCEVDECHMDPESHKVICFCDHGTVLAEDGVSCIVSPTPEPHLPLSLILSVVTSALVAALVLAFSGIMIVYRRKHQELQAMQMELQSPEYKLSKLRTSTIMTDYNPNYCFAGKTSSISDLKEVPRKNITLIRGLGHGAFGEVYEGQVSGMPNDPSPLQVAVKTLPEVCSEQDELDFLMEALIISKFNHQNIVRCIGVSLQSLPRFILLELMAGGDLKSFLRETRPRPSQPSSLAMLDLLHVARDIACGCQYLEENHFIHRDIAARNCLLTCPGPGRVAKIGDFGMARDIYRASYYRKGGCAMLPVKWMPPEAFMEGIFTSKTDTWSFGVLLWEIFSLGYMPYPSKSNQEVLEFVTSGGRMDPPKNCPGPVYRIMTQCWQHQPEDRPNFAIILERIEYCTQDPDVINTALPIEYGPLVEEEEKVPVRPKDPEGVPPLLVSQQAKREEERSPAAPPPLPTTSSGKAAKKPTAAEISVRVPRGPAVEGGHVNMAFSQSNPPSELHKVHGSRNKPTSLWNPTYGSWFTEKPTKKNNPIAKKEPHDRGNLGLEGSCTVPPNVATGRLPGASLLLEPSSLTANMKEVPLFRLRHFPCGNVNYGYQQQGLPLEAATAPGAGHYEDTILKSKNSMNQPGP

[23] = target: T1, ALK tyrosine kinase receptor; assay: Inhibition of ALK-mediated ERK phosphorylation in human H3122 cells; format: cell-based
Target sequence in this assay (Q9UM73 19-1620 limits assumed): as above

[24] = target: T1, ALK tyrosine kinase receptor; assay: Inhibition of ALK-mediated STAT3 phosphorylation in human H3122 cells; format: cell-based
Target sequence in this assay (Q9UM73 19-1620 limits assumed): as above

[25] = target: T1, ALK tyrosine kinase receptor; assay: Inhibition of ALK phosphorylation in human H3122 cells; format: cell-based
Target sequence in this assay (Q9UM73 19-1620 limits assumed): as above

[26] = target: T2, Hepatocyte growth factor receptor; assay: Inhibition of purified c-MET (unknown origin) after 60 mins by ELISA kinase assay
[27] = target: Receptor-type tyrosine-protein kinase FLT3 (Homo sapiens) (UniProt P36888); assay: Inhibition of purified Flt-3 (unknown origin) at 1 uM after 60 mins by ELISA kinase assay
[28] = target: T1, ALK tyrosine kinase receptor; conditions: 1 uM
Target sequence in this assay (Q9UM73 19-1620 limits assumed): as above
Description: Inhibition of purified ALK (unknown origin) at 1 uM after 60 mins by ELISA kinase assay

IC50 [1]: > 1 µM
SMILES: CC(C)S(=O)(=O)c1ccccc1Nc1nc(Nc2ncc(C(=O)N3C[C@H]4CN(C)C[C@H]4C3)s2)ncc1Cl

IC50 [1]: > 1 µM
SMILES: CC(C)S(=O)(=O)c1ccccc1Nc1nc(Nc2nc3c(s2)CNCC3)ncc1Cl

IC50 [1]: > 1 µM
SMILES: CC(C)S(=O)(=O)c1ccccc1Nc1nc(Nc2nc(C(=O)N3CCCCC3)cs2)ncc1Cl

IC50 [1]: > 1 µM
SMILES: COC(=O)c1csc(Nc2ncc(Cl)c(Nc3ccccc3S(=O)(=O)C(C)C)n2)n1

IC50 [1]: > 1 µM
SMILES: CCCCOC(=O)c1csc(Nc2ncc(Cl)c(Nc3ccccc3S(=O)(=O)C(C)C)n2)n1

IC50 [1]: > 1 µM
SMILES: COc1cc(NC(=O)c2csc(Nc3ncc(Cl)c(Nc4ccccc4S(=O)(=O)C(C)C)n3)n2)cc(OC)c1OC

IC50 [1]: > 1 µM
SMILES: CCOC(=O)c1csc(Nc2ncc(Cl)c(Nc3ccccc3S(=O)(=O)C(C)C)n2)n1

IC50 [1]: 0.0124 µM
IC50 [4]: 0.024 µM
inhibition [5]: 4.9%
inhibition [6]: 18%
inhibition [7]: 5.6%
inhibition [8]: 15.8%
inhibition [9]: 52.8%
inhibition [10]: 100%
inhibition [11]: 51.3%
inhibition [12]: 77%
inhibition [13]: 53.5%
inhibition [14]: 0%
inhibition [15]: 23%
inhibition [16]: 45.6%
inhibition [17]: 0%
inhibition [18]: 33.4%
inhibition [19]: 15.8%
inhibition [20]: 69.2%
inhibition [21]: 40.6%
inhibition [22]: Dose-dependent effect
inhibition [23]: Dose-dependent effect
inhibition [24]: Dose-dependent effect
inhibition [25]: Dose-dependent effect
SMILES: CC(C)S(=O)(=O)c1ccccc1Nc1nc(Nc2nc3c(s2)CCN(C(=O)C2CCOCC2)CC3)ncc1Cl
inhibition of growth at 1 µM [2]: 84.1%
inhibition of growth at 0.2 µM [3]: 23.2%

IC50 [1]: 0.0618 µM
inhibition [5]: 96%
inhibition [9]: 5.7%
inhibition [11]: 20.7%
inhibition [12]: 81.5%
inhibition [14]: 16.3%
inhibition [15]: 63.2%
inhibition [16]: 73.9%
inhibition [18]: 60.1%
IC50 [26]: 0.02 µM
inhibition [27]: 20.5%
inhibition [28]: 96%
SMILES: CNC(=O)c1ccccc1Nc1nc(Nc2nc3c(s2)CCNCC3)ncc1Cl

IC50 [1]: > 1 µM
SMILES: CNC(=O)c1csc(Nc2ncc(Cl)c(Nc3ccccc3S(=O)(=O)C(C)C)n2)n1

IC50 [1]: > 1 µM
SMILES: CC(C)S(=O)(=O)c1ccccc1Nc1nc(Nc2nc(C(=O)N3CCOCC3)cs2)ncc1Cl

IC50 [1]: > 1 µM
SMILES: CC(C)S(=O)(=O)c1ccccc1Nc1nc(Nc2nc3c(s2)CN(C)CC3)ncc1Cl

IC50 [1]: > 1 µM
SMILES: CC(C)S(=O)(=O)c1ccccc1Nc1nc(Nc2nc(C(=O)O)cs2)ncc1Cl

Further lines, the molecule ahead of its results:

SMILES: CC(C)S(=O)(=O)c1ccccc1Nc1nc(Nc2nc(C(=O)N3CC4CCC(C3)O4)cs2)ncc1Cl
inhibition of growth at 1 µM [2]: 63.4%
inhibition of growth at 0.2 µM [3]: 18.4%

SMILES: CCOC(=O)N1CCc2nc(Nc3ncc(Cl)c(Nc4ccccc4S(=O)(=O)C(C)C)n3)sc2CC1
inhibition of growth at 1 µM [2]: 16.1%
inhibition of growth at 0.2 µM [3]: 5.5%

SMILES: CC(C)S(=O)(=O)c1ccccc1Nc1nc(Nc2nc3c(s2)CCN(C(=O)CO)CC3)ncc1Cl
inhibition of growth at 1 µM [2]: 80.7%
inhibition of growth at 0.2 µM [3]: 3.7%

SMILES: CC(C)S(=O)(=O)c1ccccc1Nc1nc(Nc2nc(C(=O)N3C[C@H]4CN(C)C[C@H]4C3)cs2)ncc1Cl
inhibition of growth at 1 µM [2]: 61.4%
inhibition of growth at 0.2 µM [3]: -0.1%

SMILES: CC(C)S(=O)(=O)c1ccccc1Nc1nc(Nc2nc(C(=O)N3CC4(CCNCC4)C3)cs2)ncc1Cl
IC50 [1]: > 1 µM

SMILES: CC(C)S(=O)(=O)c1ccccc1Nc1nc(Nc2nc3c(s2)CCN(CCN2CCOCC2)CC3)ncc1Cl
inhibition of growth at 1 µM [2]: 83.5%
inhibition of growth at 0.2 µM [3]: 19.8%

SMILES: CC(C)S(=O)(=O)c1ccccc1Nc1nc(Nc2nc(C(=O)NCCN3CCOCC3)cs2)ncc1Cl
inhibition of growth at 1 µM [2]: 73.6%
inhibition of growth at 0.2 µM [3]: 29.5%

SMILES: CC(C)S(=O)(=O)c1ccccc1Nc1nc(Nc2nc3c(s2)CCN(C)CC3)ncc1Cl
inhibition of growth at 1 µM [2]: 67.7%
inhibition of growth at 0.2 µM [3]: 0.15%

SMILES: CC(C)S(=O)(=O)c1ccccc1Nc1nc(Nc2nc3c(s2)CCN(CC2CCOCC2)CC3)ncc1Cl
inhibition of growth at 1 µM [2]: 59.9%
inhibition of growth at 0.2 µM [3]: -13.7%
